US11130741B2 (Bioimics AB, priority 2016, dated 2021)
Values after ≈ are worked out from the molar mass of the structure shown. Like-named read-outs stand apart in the source and are kept apart here.

What was measured:
[1] = system: E. coli JW5503; assay: MIC, E. coli JW5503; format: cell-based; settings: Escherichia coli, JW5503, read-out: MIC E. coli JW5503
[2] = system: H. influenzae ATCC 49247; assay: MIC, H. influenzae ATCC 49247; format: cell-based; settings: Haemophilus influenzae, ATCC49247
[3] = system: S. aureus ATCC 29213; assay: MIC, S. aureus ATCC 29213 + 50% HS; format: cell-based; settings: Staphylococcus aureus, ATCC29213
[4] = system: E. coli RNase P RNA, M1 RNA; assay: Inhibition of bacterial RNase P activity, IC50 determination (cleavage of pATSerUG by M1 RNA); format: biochemical; settings: NI = No inhibition
[5] = system: E. faecium ATCC 700221; assay: MIC, E. faecium ATCC 700221; format: cell-based
[6] = system: K. pneumoniae ATCC 43816; assay: MIC, K. pneumoniae ATCC 43816; format: cell-based; settings: Klebsiella pneumoniae, ATCC43816
[7] = system: P. aeruginosa NTUH-974 (MDR); assay: MIC, P. aeruginosa NTUH-974 (MDR); format: cell-based
[8] = system: Staphylococcus aureus subsp. aureus (ATCC29213); assay: MIC, broth microdilution (CLSI), Staphylococcus aureus subsp. aureus ATCC29213; format: cell-based
[9] = system: Escherichia coli (ATCC25922); assay: MIC, broth microdilution (CLSI), Escherichia coli ATCC25922
[10] = system: Staphylococcus aureus (ATCC25923); assay: MIC, broth microdilution (CLSI), Staphylococcus aureus ATCC25923
Procedure: Initial minimal inhibitory concentration (MIC) tests were made on two bacterial strains: • Escherichia coli (ATCC25922) • Staphylococcus aureus (ATCC25923).
Minimal Inhibitory Concentration (MIC)
MIC values were determined using the standard broth microdilution procedure based on the guidelines by the Clinical and Laboratory Standards Institute (CLSI). Briefly, the compounds were dissolved in DMSO to 10 mM. They were diluted in cation-adjusted Mueller-Hinton broth (CAMHB) to four times the highest concentration tested. A serial 2-fold dilution in CAMHB was done in microdilution plates. The inoculum of bacterial strain to be tested was prepared by making a suspension of colonies from an 18 to 24 hours old plate in CAMHB. The inoculum was diluted so that, after inoculation, each well contained approximately 5×10^5 CFU/mL. To a volume of 50 μl compound in CAMHB an equal volume of inoculum was added. The tray was sealed in a plastic bag and incubated at 35° C. for 16 to 20 hours. To aid in the detection of growth the dye resazurin was added to a final concentration 0.001% and incubated at room temperature for 1 h. Reduction of resazurin, and therefore bacterial growth, was seen as a change from blue to pink.

[11] = system: Enterococcus faecalis (ATCC29212); assay: MIC, broth microdilution (CLSI), Enterococcus faecalis ATCC29212; format: cell-based; settings: read-out: MIC E. faecalis ATCC 29212
[12] = system: S. pneumoniae ATCC 49619; assay: MIC, S. pneumoniae ATCC 49619; format: cell-based; settings: Streptococcus pneumoniae, ATCC49619
[13] = system: N. gonorrhoeae 612501; assay: MIC, N. gonorrhoeae 612501; format: cell-based; settings: Neisseria gonorrhoeae
[14] = system: A. baumannii ATCC 17978; assay: MIC, A. baumannii ATCC 17978; format: cell-based; settings: Acinetobacter baumannii, ATCC17978
[15] = system: Pseudomonas aeruginosa (ATCC27853); assay: microbe, parasite or virus in culture; format: cell-based; settings: read-out: MIC P. aeruginosa ATCC 27853
[16] = system: S. aureus MRSA ATCC 33591; assay: MIC, S. aureus MRSA ATCC 33591; format: cell-based
[17] = Enterococcus faecium, ATCC700221; read-out: MIC E. faecium ATCC 700221
[18] = Pseudomonas aeruginosa, read-out: MIC P. aeruginosa NTUH-974 (MDR)
[19] = ATCC29213, Table 16, read-out: MIC S. aureus ATCC 29213
[20] = ATCC25922, read-out: E. coli MIC, Table 15, NI = No inhibition
[21] = ATCC25922, read-out: MIC E. coli ATCC 25922, Table 16
[22] = ATCC25923, read-out: S. aureus ("Clinical") MIC
[23] = Staphylococcus aureus; read-out: MIC S. aureus MRSA ATCC 33591
[24] = ATCC29213, Table 15, read-out: S. aureus ("wound") (MIC)
[25] = ATCC25922, read-out: MIC E. coli ATCC 25922

SMILES | MIC [1] | MIC [2] | MIC [3] | IC50 [4] | MIC [5, 17] | MIC [6] | MIC [7, 18] | MIC [8, 19] | MIC [9, 20] | MIC [9, 21] | MIC [10, 22] | MIC [11] | MIC [12] | MIC [13] | MIC [14] | MIC [15] | MIC [16, 23] | MIC [8, 24] | MIC [9, 25] | other results
NCCCN1c2ccccc2Sc2cc(-c3cc4ccccc4[nH]3)ccc21 [compound 150, 3-(3-(1H-Indol-2-yl)-10H-phenothiazin-10-yl)propan-1-amine] | 4 µg/mL (≈ 10.8 µM) | 8 µg/mL (≈ 21.5 µM) | 64 µg/mL | 14 µM | 2 µg/mL (≈ 5.38 µM) | 16 µg/mL (≈ 43.1 µM) | > 128 µg/mL | 2 µg/mL (≈ 5.38 µM) | 12 µg/mL (≈ 32.3 µM) | 16 µg/mL (≈ 43.1 µM) | 1 µg/mL (≈ 2.69 µM) | 2 µg/mL (≈ 5.38 µM) | 8 µg/mL (≈ 21.5 µM) | 2 µg/mL (≈ 5.38 µM) | 16 µg/mL (≈ 43.1 µM) | > 128 µg/mL | 2 µg/mL (≈ 5.38 µM) | – | – | –
CC(C)NCCCN1c2ccccc2Sc2cc(-c3cc4ccccc4[nH]3)ccc21 [compound 197, 3-(3-(1H-indol-2-yl)-10H-phenothiazin-10-yl)-N-isopropylpropan-1-amine] | 4 µg/mL (≈ 9.67 µM) | 16 µg/mL (≈ 38.7 µM) | 128 µg/mL | 25 µM | 2 µg/mL (≈ 4.84 µM) | > 128 µg/mL | > 128 µg/mL | 2 µg/mL (≈ 4.84 µM) | – | 64 µg/mL (≈ 155 µM) | 6 µg/mL (≈ 14.5 µM) | 2 µg/mL (≈ 4.84 µM) | 4 µg/mL (≈ 9.67 µM) | 1 µg/mL (≈ 2.42 µM) | 64 µg/mL (≈ 155 µM) | > 128 µg/mL | 16 µg/mL (≈ 38.7 µM) | 4 µg/mL (≈ 9.67 µM) | – | –
CNCCCN1c2ccccc2Sc2cc(-c3cc4ccccc4[nH]3)ccc21 [compound 186, 3-(3-(1H-indol-2-yl)-10H-phenothiazin-10-yl)-N-methylpropan-1-amine] | 4 µg/mL (≈ 10.4 µM) | 16 µg/mL (≈ 41.5 µM) | 64 µg/mL | 30 µM | 4 µg/mL (≈ 10.4 µM) | 128 µg/mL (≈ 332 µM) | > 128 µg/mL | 4 µg/mL (≈ 10.4 µM) | 99 µg/mL (≈ 257 µM) | 16 µg/mL (≈ 41.5 µM) | 2 µg/mL (≈ 5.19 µM) | 4 µg/mL (≈ 10.4 µM) | 32 µg/mL (≈ 83 µM) | 4 µg/mL (≈ 10.4 µM) | 16 µg/mL (≈ 41.5 µM) | > 128 µg/mL | 8 µg/mL (≈ 20.8 µM) | – | – | –
NCCNC(=O)c1ccc2c(c1)Sc1cc(C(F)(F)F)cc(NC3CCN(CCN)CC3)c1N2 [compound 255, N-(2-aminoethyl)-9-((1-(2-aminoethyl)piperidin-4-yl)amino)-7-(trifluoromethyl)-10H-phenothiazine-3-carboxamide trifluroroacetic acid] | 16 µg/mL (≈ 32.4 µM) | 64 µg/mL (≈ 129 µM) | 64 µg/mL | – | – | 128 µg/mL (≈ 259 µM) | 64 µg/mL (≈ 129 µM) | 8 µg/mL (≈ 16.2 µM) | – | – | – | 16 µg/mL (≈ 32.4 µM) | 64 µg/mL (≈ 129 µM) | 16 µg/mL (≈ 32.4 µM) | 128 µg/mL (≈ 259 µM) | 128 µg/mL (≈ 259 µM) | – | 8 µg/mL (≈ 16.2 µM) | 64 µg/mL (≈ 129 µM) | MIC ([5]; Enterococcus faecium, ATCC700221, read-out: MIC E. faecium ATCC 700221): 32 µg/mL (≈ 64.7 µM); MIC ([9]; ATCC25922, read-out: E. coli MIC): 39 µg/mL (≈ 78.9 µM); MIC ([10]; ATCC25923, read-out: S. aureus ("Clinical") MIC, Table 15): 2 µg/mL (≈ 4.04 µM); MIC ([16]; Staphylococcus aureus, read-out: MIC S. aureus MRSA ATCC 33591): 16 µg/mL (≈ 32.4 µM)
CN(C)CCCN1c2ccccc2Sc2cc(-c3cc4cc(C#N)ccc4[nH]3)ccc21 [compound 123, 2-(10-(3-(dimethylamino)propyl)-10H-phenothiazin-3-yl)-1H-indole-5-carbonitrile] | 4 µg/mL (≈ 9.42 µM) | 16 µg/mL (≈ 37.7 µM) | 64 µg/mL | > 100 µM | 2 µg/mL (≈ 4.71 µM) | > 128 µg/mL | > 128 µg/mL | 2 µg/mL (≈ 4.71 µM) | > 100 µg/mL | – | 2 µg/mL (≈ 4.71 µM) | 2 µg/mL (≈ 4.71 µM) | 8 µg/mL (≈ 18.8 µM) | 1 µg/mL (≈ 2.36 µM) | 64 µg/mL (≈ 151 µM) | > 128 µg/mL | 8 µg/mL (≈ 18.8 µM) | 2 µg/mL (≈ 4.71 µM) | > 128 µg/mL | –
NCCCN1c2ccc(-c3cc4ccccc4[nH]3)cc2Sc2cc(C(F)(F)F)ccc21 [compound 245, 3-(3-(1H-indol-2-yl)-7-(trifluoromethyl)-10H-phenothiazin-10-yl)propan-1-amine] | 8 µg/mL (≈ 18.2 µM) | 4 µg/mL (≈ 9.1 µM) | 128 µg/mL | 1 µM | 1 µg/mL (≈ 2.28 µM) | 32 µg/mL (≈ 72.8 µM) | – | 2 µg/mL (≈ 4.55 µM) | 7 µg/mL (≈ 15.9 µM) | 8 µg/mL (≈ 18.2 µM) | 2 µg/mL (≈ 4.55 µM) | 2 µg/mL (≈ 4.55 µM) | 16 µg/mL (≈ 36.4 µM) | 2 µg/mL (≈ 4.55 µM) | 16 µg/mL (≈ 36.4 µM) | > 128 µg/mL | 2 µg/mL (≈ 4.55 µM) | 1 µg/mL (≈ 2.28 µM) | – | MIC ([7]; Pseudomonas aeruginosa; read-out: MIC P. aeruginosa NTUH-974 (MDR)): 64 µg/mL (≈ 146 µM)
